Drawing on ChEMBL document CHEMBL1201862, “PubChem BioAssay data set” (2004), this text covers EC50, IC50 and AC50 for two compounds.

Active and inactive are the calls of the source.

One test deals with Streptococcus. Nature of the test: GAS UMAA2166 growth inhibition – luminescence, BacTiterGlo, counter-screen for streptokinase expression inhibitor project, dose response (AID 1915).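 Further: potency for reduction of bacterial viability or growth.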 Type of test: functional, organism-based. A general note: The purpose of a counterscreen is to sort out artefacts and off-target activity.
Test [1] deals with HEK293. Nature of the test: SAR Analysis of small molecule inhibitors of T-cell specific antigen receptor-induced NF-kB activation in a HEK-293T cell line using a luminescence assay - Set 2. [Related pubchem assays (depositor defined):AID435003, AID435012, AID489026]. The note with it: Homo sapiens. The test is classed as functional, cell-based.
Test [2] deals with BJ. The test can be described thus: BJ-TERT-LT-ST fibroblast viability loss – cell-based, RAS-independent, luminescence, dose response (AID 1935).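 Further: BJ fibroblasts immortalized with TERT plus LT and ST oncogenes.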 The test is classed as functional. The note with it: Homo sapiens.
Test [3] is described as follows: reduction of Shn3 3'UTR-driven luciferase in osteoblasts – cell-based, Clone20 osteoblasts, firefly luciferase, cherry-picked, dose response (AID 624132).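 Further: firefly luciferase luminescence from reporter carrying the Shn3 3'UTR in osteoblasts.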 Type of test: functional.
The subject of test [4] is HEK293. The test can be described thus: HEK293T cell viability loss, resazurin readout – resazurin fluorescence, cytotoxicity control for NF-kB activator project, SAR follow-up (AID 493251). Type of test: functional, cell-based. Conditions: Homo sapiens. For orientation: Resazurin is reduced to fluorescent resorufin, in cell work by metabolically active cells.
The nature of test [5]: NIH3T3 cell viability loss – ATP luminescence, mouse fibroblasts, counter-screen, dose response (AID 2010).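 Further: cells exposed to compound for about 90 hours before reading.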 Type of test: functional, cell-based.
The next test in a line: cells. The test is classed as functional, cell-based.
The next test deals with Hexokinase-1 (Homo sapiens, UniProt P19367). The test can be described thus: HK1 enzyme activation by HKDC1 hits – biochemical, selectivity assay for HKDC1 activator project, dose response (AID 504762). Type of test: functional.
The next test has as its target Hexokinase HKDC1 (Homo sapiens, UniProt Q2TB90). The test can be described thus: activation of HKDC1 glucose phosphorylation – biochemical, W721R variant, dose response (AID 504730). Type of test: functional.
Test [6] relates to BJ. Nature of the test: cells. Type of test: functional, cell-based. The note with it: Homo sapiens.

Hexokinase-1, sequence (P19367 whole entry): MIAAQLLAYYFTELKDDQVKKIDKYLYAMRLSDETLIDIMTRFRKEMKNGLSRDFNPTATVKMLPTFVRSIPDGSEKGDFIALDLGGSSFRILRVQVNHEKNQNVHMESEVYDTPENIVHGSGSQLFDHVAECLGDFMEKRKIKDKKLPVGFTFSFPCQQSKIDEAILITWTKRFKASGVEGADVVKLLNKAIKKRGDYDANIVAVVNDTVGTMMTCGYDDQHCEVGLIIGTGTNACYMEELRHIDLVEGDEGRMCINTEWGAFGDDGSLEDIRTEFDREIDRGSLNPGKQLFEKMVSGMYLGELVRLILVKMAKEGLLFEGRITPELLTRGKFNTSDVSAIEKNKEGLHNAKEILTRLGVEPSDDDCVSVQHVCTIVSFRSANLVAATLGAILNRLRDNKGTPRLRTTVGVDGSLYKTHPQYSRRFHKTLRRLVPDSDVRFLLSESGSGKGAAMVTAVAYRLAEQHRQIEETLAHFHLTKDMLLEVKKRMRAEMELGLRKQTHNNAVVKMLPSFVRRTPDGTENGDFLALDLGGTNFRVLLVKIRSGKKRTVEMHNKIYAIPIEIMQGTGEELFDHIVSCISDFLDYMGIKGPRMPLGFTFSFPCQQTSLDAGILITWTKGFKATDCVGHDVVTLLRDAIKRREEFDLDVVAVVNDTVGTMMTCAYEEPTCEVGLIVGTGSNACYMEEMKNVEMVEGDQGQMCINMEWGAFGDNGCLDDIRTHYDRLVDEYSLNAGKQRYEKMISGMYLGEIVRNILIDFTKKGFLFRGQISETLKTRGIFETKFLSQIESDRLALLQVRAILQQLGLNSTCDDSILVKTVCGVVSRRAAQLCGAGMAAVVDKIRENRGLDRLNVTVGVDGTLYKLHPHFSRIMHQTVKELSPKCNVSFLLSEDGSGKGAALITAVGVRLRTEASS
Hexokinase HKDC1, sequence (Q2TB90 whole entry): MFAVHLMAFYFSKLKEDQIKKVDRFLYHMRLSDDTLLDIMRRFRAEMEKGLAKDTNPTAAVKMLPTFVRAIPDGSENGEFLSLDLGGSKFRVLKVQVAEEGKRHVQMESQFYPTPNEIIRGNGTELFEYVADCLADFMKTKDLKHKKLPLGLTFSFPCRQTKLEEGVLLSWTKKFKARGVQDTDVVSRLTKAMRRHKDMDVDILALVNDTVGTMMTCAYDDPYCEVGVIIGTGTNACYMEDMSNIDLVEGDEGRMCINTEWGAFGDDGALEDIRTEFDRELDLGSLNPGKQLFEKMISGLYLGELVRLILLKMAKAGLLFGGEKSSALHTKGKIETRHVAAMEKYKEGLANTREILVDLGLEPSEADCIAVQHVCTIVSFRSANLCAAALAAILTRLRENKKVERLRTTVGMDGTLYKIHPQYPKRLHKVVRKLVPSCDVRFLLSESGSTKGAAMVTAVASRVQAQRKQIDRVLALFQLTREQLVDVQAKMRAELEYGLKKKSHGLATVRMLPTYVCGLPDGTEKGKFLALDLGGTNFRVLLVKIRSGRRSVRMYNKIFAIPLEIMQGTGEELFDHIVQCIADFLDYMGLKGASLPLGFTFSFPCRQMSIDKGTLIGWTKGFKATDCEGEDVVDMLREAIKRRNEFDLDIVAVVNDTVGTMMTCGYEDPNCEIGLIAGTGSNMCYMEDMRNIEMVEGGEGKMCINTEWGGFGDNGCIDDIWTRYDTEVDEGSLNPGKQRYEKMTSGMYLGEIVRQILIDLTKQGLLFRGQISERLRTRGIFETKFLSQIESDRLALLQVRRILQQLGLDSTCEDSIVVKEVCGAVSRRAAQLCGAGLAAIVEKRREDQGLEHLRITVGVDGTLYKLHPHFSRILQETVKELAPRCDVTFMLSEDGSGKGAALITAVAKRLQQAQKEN

On to `CCOc1cccc(/C=N/NC(=S)Nc2ccccc2[N+](=O)[O-])c1O`, for which the EC50 with Streptococcus is 4.18 µM (active).
Consider `CCCCC(=O)NC(c1ccc(N(CC)CC)cc1)c1ccc2cccnc2c1O` (stereo not given), for which the IC50 is 13 µM (active) in the test with HEK293 [1] and 35 µM (inactive) with HEK293 [4]. The EC50 is 1.79 µM (active) in the test on BJ [2]; 884 nM (active) in [5]; 3.08 µM (active) in “cells”; > 80 µM (inactive) at Hexokinase-1; 13.3 µM (active) at Hexokinase HKDC1; 2.41 µM (active) in the test on BJ [6]. In test [3], the AC50 is 1.12 µM (active).

As a reminder, the EC50 is the concentration at which the effect is half-maximal. A word on the IC50: it is the concentration that gives 50% inhibition. The term AC50 denotes the concentration giving half of the maximal activity seen.
